Reference: article PMC3419223, “Transient Receptor Potential Ankyrin 1 Channel Localized to Non-Neuronal Airway Cells Promotes Non-Neurogenic Inflammation” (PLoS ONE, 2012)
Ends that are not written are not given here.

What was measured:
[1] = target: T1, TRPA1 (Homo sapiens, UniProt O75762); experiment: Calcium imaging (Fura-2) of TRPA1 agonist responses in human airway/lung cells; format: cell-based; settings: for effect of antagonist on calcium response evoked by CNM, ACR or CSE: A549 and IMR90; for effect of antagonist on calcium response evoked by CNM, ACR or CSE / effect of antagonist on calcium responses to CNM, ACR and CSE: antagonist 10 µM; for EC50: intracellular calcium response
T1 construct: cultured human airway cells, including fibroblasts, epithelial and smooth muscle cells express functional TRPA1 channels; endogenous in cells; host or cells: SAEC, NHLF, HBSMC (Lonza, primary); A549, IMR90 (ATCC)
T1 sequence (O75762 whole entry): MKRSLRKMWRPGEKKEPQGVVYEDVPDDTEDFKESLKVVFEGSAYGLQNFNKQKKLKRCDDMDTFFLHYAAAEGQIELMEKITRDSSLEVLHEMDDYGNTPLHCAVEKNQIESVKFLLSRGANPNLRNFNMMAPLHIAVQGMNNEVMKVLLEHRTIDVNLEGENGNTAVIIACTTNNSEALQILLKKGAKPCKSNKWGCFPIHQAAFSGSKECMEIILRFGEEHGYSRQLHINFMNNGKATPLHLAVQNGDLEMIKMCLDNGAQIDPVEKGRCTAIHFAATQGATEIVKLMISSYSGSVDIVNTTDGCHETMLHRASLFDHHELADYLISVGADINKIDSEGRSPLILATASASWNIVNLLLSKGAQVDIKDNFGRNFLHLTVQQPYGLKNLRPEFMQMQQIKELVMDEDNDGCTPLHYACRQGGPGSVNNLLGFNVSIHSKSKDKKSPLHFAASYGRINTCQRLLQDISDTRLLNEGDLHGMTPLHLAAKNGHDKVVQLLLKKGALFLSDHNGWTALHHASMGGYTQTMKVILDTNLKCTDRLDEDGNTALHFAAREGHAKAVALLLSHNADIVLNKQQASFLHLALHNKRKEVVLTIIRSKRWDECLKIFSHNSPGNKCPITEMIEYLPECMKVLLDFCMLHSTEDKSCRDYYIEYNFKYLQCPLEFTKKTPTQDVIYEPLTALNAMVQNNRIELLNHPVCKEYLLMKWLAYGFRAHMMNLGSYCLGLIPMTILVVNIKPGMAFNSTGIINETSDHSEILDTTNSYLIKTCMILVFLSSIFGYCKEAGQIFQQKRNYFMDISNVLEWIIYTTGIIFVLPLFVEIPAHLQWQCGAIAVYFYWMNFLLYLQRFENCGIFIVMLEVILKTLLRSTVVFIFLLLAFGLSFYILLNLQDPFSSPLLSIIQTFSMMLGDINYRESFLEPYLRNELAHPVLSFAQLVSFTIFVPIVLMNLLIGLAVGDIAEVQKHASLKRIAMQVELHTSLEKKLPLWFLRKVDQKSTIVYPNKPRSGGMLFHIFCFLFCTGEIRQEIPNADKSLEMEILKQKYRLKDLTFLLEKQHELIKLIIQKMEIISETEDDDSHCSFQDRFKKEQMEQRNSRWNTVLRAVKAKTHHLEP
Method: Human small airway epithelial cells (SAEC), normal human lung fibroblasts (NHLF) and human bronchial smooth muscle cells (HBSMC) were purchased from Lonza. Human alveolar type II epithelium-like adherent cell line (A549) and human lung embryonic fibroblast (IMR90) were purchased from American Type Culture Collection (Manassas, VA). SAEC and NHLF were cultured respectively in SAGM and FBM medium (Lonza) according to the manufacturer's instructions. IMR90 and HBSMC were cultured in DMEM supplemented with 10% FBS, 2 mM glutamine, 100 U penicillin and 100 µg/ml streptomycin (Sigma-Aldrich), and A549 were cultured in RPMI supplemented with 10% FBS, 2 mM glutamine, 100 U penicillin, 100 µg/ml streptomycin and 1 mM HEPES (Sigma-Aldrich). All cells were cultured in an atmosphere of 95% air and 5% CO2 at 37°C.
CSE was generated as previously reported. Briefly, aqueous CSE was obtained from the combustion of four cigarettes (Marlboro Red, 12 mg of tar, 0.9 mg of nicotine each) bubbled through 50 ml of buffer and subsequently filtered through a 0.2-µm pore filter (Millipore). To ensure reproducibility among different CSE batches, the absorbance (optical density; OD) measured at 320 nm was used as a measure of the “strength” of the extract. Dilutions were made with buffer to obtain the desired absorbance. The CSE was freshly prepared on the day of the experiment and used immediately after preparation.
(§1) For calcium fluorescence measurements, cells were incubated with 5 µM Fura-2AM ester (Alexis Biochemicals) for 40 minutes at 37°C. Intracellular calcium levels were measured and recorded with a dynamic image analysis system (Laboratory Automation 2.0; RC Software). Fluorescence was measured during excitation at 340 and 380 nm, and after correction for the individual background fluorescence signals, the ratio of the fluorescence at both excitation wavelengths (Ratio340/380) was monitored. Experiments were performed using buffer solution containing (in mM): 150 NaCl, 6 KCl, 1 MgCl2, 1.5 CaCl2, 10 glucose, 10 HEPES at pH 7.4. Cells were stimulated with cinnamaldehyde (0.1–3000 µM), acrolein (0.1–3000 µM), CSE (0.001–0.5 OD), capsaicin (1 µM) and the activating peptide (SLIGKV-NH2) of the human PAR-2 receptor (hPAR-2 AP; 100 µM), or their respective vehicles (0.3% DMSO,aqueous buffer or 1% ethanol). HC-030031 and AP18 vehicles (used in all the in vitro experiments) were 3% DMSO and 1% DMSO, respectively. Results are expressed as the increase of Ratio340/380 over the baseline normalized to the maximum effect induced by ionomycin (5 µM) added at the end of the experiment.

[2] = target: T2, PAR-2 receptor (Homo sapiens, UniProt P55085); experiment: Calcium imaging, response to the PAR-2 activating peptide (selectivity control); format: cell-based; settings: PAR-2 AP 100 µM; antagonist 10 µM
T2 construct: endogenous in cells
T2 sequence (P55085 26-397): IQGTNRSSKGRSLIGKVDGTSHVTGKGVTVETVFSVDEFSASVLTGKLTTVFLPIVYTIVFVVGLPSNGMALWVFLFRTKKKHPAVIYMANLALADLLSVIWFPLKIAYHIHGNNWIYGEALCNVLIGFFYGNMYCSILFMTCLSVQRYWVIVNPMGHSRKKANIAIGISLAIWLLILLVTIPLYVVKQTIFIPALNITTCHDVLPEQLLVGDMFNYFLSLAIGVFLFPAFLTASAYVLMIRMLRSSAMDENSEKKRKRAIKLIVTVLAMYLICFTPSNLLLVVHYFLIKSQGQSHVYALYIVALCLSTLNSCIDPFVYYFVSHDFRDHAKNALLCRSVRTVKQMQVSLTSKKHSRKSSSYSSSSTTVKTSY
Method: as §1

[3] = tested on: IL-8 release from SAEC, NHLF and HBSMC; experiment: IL-8 release from human airway/lung cells in primary culture, ELISA; format: cell-based; settings: for effect of antagonist on CSE-evoked IL-8 release / effect of antagonist on IL-8 release induced by IL-1β or TNF-α / effect of antagonist on acrolein-evoked IL-8 release: HC-030031 30 µM, AP18 10 µM; for IL-8 release: overnight exposure
Method: For IL-8 ELISA assays, HBSMC, SAEC, and NHLF were seeded in complete culture medium in 48-well plates, grown to ∼80–90% confluence, and incubated overnight in serum-free medium before treatments. All the treatments were performed in serum free medium. Cells were pretreated with the selective TRPA1 antagonists, HC-030031 and AP18, or their vehicles, for 30–60 min before treatment with freshly prepared acrolein, CSE, TNF-α and IL-1β for 18 hours at 37°C with 5% CO2. Subsequently, supernatants were collected and stored at −80°C for ELISA assay. Human IL-8 was measured using a paired antibody quantitative ELISA kit (Invitrogen) (detection limit: 5 pg/ml). The assays were performed according to the manufacturer's instructions. Vitality assay method (MTT reduction assay) is available online as (Text S1).

[4] = tested on: C57BL/6 mouse trachea and bronchi; experiment: Plasma protein extravasation (Evans blue dye) after intratracheal instillation; format: in vivo; settings: C57BL/6 mice; for plasma protein extravasation (PPE) after instillation into the tracheal lumen: i.t. 30 µl, acrolein 5 mM, CSE 1 OD, capsaicin 100 µM, SP 25 nM; for effect on acrolein (5 mM, i.t.)- and CSE (1 OD, i.t.)-evoked increase in PPE / effect on SP (25 nM)- and capsaicin (100 µM)-evoked Evans blue dye extravasation (PPE): L-733,060 2 µmol/kg i.v.; for effect on acrolein (5 mM, i.t.)- and CSE (1 OD, i.t.)-evoked increase in PPE: CPZ 30 mg/kg i.p., HC 300 mg/kg i.g.; for effect on SP (25 nM)- and capsaicin (100 µM)-evoked Evans blue dye extravasation (PPE): capsazepine 30 mg/kg i.p., HC-030031 300 mg/kg i.g.
Method: (§2) To defunctionalize/desensitize TRPV1 expressing primary sensory neurons, resiniferatoxin (RTX) was administered to C57BL/6 mice, as previously described, [40]. Briefly, mice were treated subcutaneously (s.c.) with a single injection of RTX (50 µg/kg) or its vehicle (10% ethanol and 10% tween 80 in isotonic saline) into the scruff of the neck under a light ether anesthesia to avoid unnecessary pain. Experiments were carried out 7 days after RTX treatment when responses to both TRPV1 and TRPA1 agonists in the treated mice were abolished, [40].
Anesthetized (sodium pentobarbital, 50 mg/kg i.p.) C57BL/6 mice received Evans blue dye (30 mg/kg i.v.), 1 min before intratracheal (i.t) instillation (30 µl) of acrolein (5 mM), capsaicin (100 µM), SP (25 nM), CSE (1 OD) or their vehicles (isotonic saline, 1% ethanol in isotonic saline and isotonic saline). […] The tachykinin NK1 receptor antagonist, L-733,060 (2 µmol/kg i.v.; Tocris) or its vehicle were administered 15 min before the stimulus. The TRPV1 selective antagonist, capsazepine, (30 mg/kg i.p.) or its vehicle (2.5% DMSO in isotonic saline) and intragastric (i.g.) TRPA1 selective antagonist, HC-030031 (300 mg/kg i.g.) or its vehicle were administered 30 and 60 min before the stimulus, respectively. In another set of experiments ACR (5 mM, i.t.), or its vehicle, has been administered in C57BL/6 mice desensitized to RTX (50 µg/kg; s.c.). Animals were euthanized 15 min after treatment and transcardially perfused with 0.9% isotonic saline solution. The extravasated dye was extracted from mouse trachea and bronchi by overnight incubation in formamide and assayed by spectrophotometry at 620 nm, as reported previously.

[5] = tested on: C57BL/6 mice, Trpa1+/+ or Trpa1-/- mice; experiment: KC (CXCL-1) release in bronchoalveolar lavage fluid, ELISA; format: in vivo, mouse; settings: for KC in BAL 24 hours after intratracheal instillation: i.t. 30 µl, acrolein 5 mM, CSE 1 OD, capsaicin 100 µM, SP 25 nM; for effect of pretreatment on KC release evoked by acrolein or CSE: HC-030031 300 mg/kg i.g., L-733,060 2 µmol/kg i.v.
Method: as §2
Trpa1^+/+ or Trpa1^−/− B6129P mice (5 per group) were exposed acutely to the cigarette smoke (CS) produced with commercial cigarettes (Marlboro Red, 12 mg of tar, 0.9 mg of nicotine each), by using a “nose-only” exposure unit. The smoke produced by cigarette burning was introduced into the exposure chamber (inner volume = 11.61 l) with the airflow generated by a mechanical ventilator (7025 Rodent Ventilator, Ugo Basile) at a rate of 250 ml/min [58]. A second mechanical ventilator was used to provide room air for dilution (1∶8) of the smoke stream. Mice were exposed to the smoke of 5 cigarettes per exposure period, twice daily, for 3 consecutive days, and sacrificed 24 hours later. Genotype-, age-, strain- and sex-matched control animals were exposed to air only in the same manner for the same duration of time. Anesthetized C57BL/6, and Trpa1^+/+ or Trpa1^−/− (C57BL/6) mice were intratracheally administered with (30 µl) acrolein (5 mM), capsaicin (100 µM), SP (25 nM) and CSE (1 OD) or their vehicles (isotonic saline, 1% ethanol in isotonic saline and isotonic saline) and sacrificed 24 hours later. The NK1 receptor antagonist, L-733,060 (2 µmol/kg i.v.; Tocris) or its vehicle (isotonic saline) were administered 15 min before the stimulus, and i.g. HC-030031 (300 mg/kg) or its vehicle (0.5% CMC in isotonic saline 0.9%) were administered 1 hour before the stimulus. In another set of experiments ACR (5 mM, i.t.), or its vehicle, has been administered in C57BL/6 mice desensitized to RTX (50 µg/kg; s.c.). Animals were sacrificed 24 hours after the last exposure/treatment with an overdose of anesthetic followed by exsanguination, and the lungs were lavaged using a cannula inserted into the trachea and instilling 1 ml of Hank's Buffer added with HEPES 10 mM and EDTA 10 mM three times. […] BAL were centrifuged at 200× g at 4°C for 10 min, and the cell-free supernatants were stored at −80°C for cytokine determination. Frozen cell-free BAL was analyzed for keratinocyte chemoattractant (CXCL-1/KC, the murine analogue of IL-8) release by using a commercial ELISA-assay (Invitrogen).

[6] = tested on: TRPV1; experiment: Calcium imaging, response to the TRPV1 agonist capsaicin in human airway/lung cells; format: cell-based; settings: 1 µM; SAEC, A549, NHLF, IMR90 and HBSMC; data not shown

CC(=C\c1ccc(Cl)cc1)/C(C)=N/O [AP18]
effect of antagonist on calcium response evoked by CNM, ACR or CSE [1]: abolished | effect of antagonist on calcium responses to CNM, ACR and CSE ([1]; SAEC, NHLF, HBSMC): prevented | effect of antagonist on calcium response to the PAR-2 activating peptide [2]: did not affect | effect of antagonist on CSE-evoked IL-8 release [3]: reduced | effect of antagonist on IL-8 release induced by IL-1β or TNF-α [3]: not affected | effect of antagonist on acrolein-evoked IL-8 release [3]: significantly reduced

C=CC=O [Acrolein, acrolein]
EC50 ([1]; A549): 7.3 µM | EC50 ([1]; HBSMC): 6.3 µM | EC50 ([1]; IMR90): 2.9 µM | EC50 ([1]; NHLF): 4.4 µM | EC50 ([1]; SAEC): 56.9 µM | plasma protein extravasation (PPE) after instillation into the tracheal lumen [4]: increased PPE | KC release in Trpa1-/- mice ([5]; 5 mM i.t., Trpa1-/- mice (C57BL/6)): completely absent | KC in BAL 24 hours after intratracheal instillation ([5]; C57BL/6 mice): significantly increased | IL-8 release [3]: concentration-dependent IL-8 release

O=C/C=C/c1ccccc1 [Cinnamaldehyde, cinnamaldehyde]
EC50 ([1]; A549): 10.9 µM | EC50 ([1]; HBSMC): 6.7 µM | EC50 ([1]; IMR90): 2.7 µM | EC50 ([1]; NHLF): 6.6 µM | EC50 ([1]; SAEC): 46.3 µM | IL-8 release [3]: release IL-8

CC(C)c1ccc(NC(=O)Cn2cnc3c2c(=O)n(C)c(=O)n3C)cc1 [HC-030031]
effect of antagonist on calcium response evoked by CNM, ACR or CSE [1]: abolished | effect of antagonist on calcium responses to CNM, ACR and CSE ([1]; SAEC, NHLF, HBSMC): prevented | effect of antagonist on calcium response to the PAR-2 activating peptide [2]: did not affect | effect on acrolein (5 mM, i.t.)- and CSE (1 OD, i.t.)-evoked increase in PPE [4]: prevent | effect of pretreatment on KC release evoked by acrolein or CSE ([5]; C57BL/6 mice): significantly reduced | effect of antagonist on CSE-evoked IL-8 release [3]: reduced | effect of antagonist on IL-8 release induced by IL-1β or TNF-α [3]: not affected | effect of antagonist on acrolein-evoked IL-8 release [3]: significantly reduced

FC(F)(F)c1cc(CO[C@H]2CCCN[C@H]2c2ccccc2)cc(C(F)(F)F)c1 [L-733,060]
effect on acrolein (5 mM, i.t.)- and CSE (1 OD, i.t.)-evoked increase in PPE [4]: prevent | effect on SP (25 nM)- and capsaicin (100 µM)-evoked Evans blue dye extravasation (PPE) [4]: prevented | effect of pretreatment on KC release evoked by acrolein or CSE ([5]; C57BL/6 mice): failed to reduce

C=C(C)[C@]12C[C@@H](C)[C@@]34O[C@](Cc5ccccc5)(O[C@@H]1[C@@H]3C=C(COC(=O)Cc1ccc(O)c(OC)c1)C[C@]1(O)C(=O)C(C)=C[C@@H]41)O2 [RTX, resiniferatoxin]
acrolein-induced PPE after desensitization ([4]; RTX 50 µg/kg s.c., 7 days before, ACR 5 mM i.t.): completely abolished | acrolein-induced increase in KC in BAL fluid after desensitization ([5]; RTX 50 µg/kg s.c., 7 days before, ACR 5 mM i.t., C57BL/6 mice): remained unchanged

COc1cc(CNC(=O)CCCC/C=C/C(C)C)ccc1O [capsaicin]
calcium response [6]: failed to produce any visible calcium response | plasma protein extravasation (PPE) after instillation into the tracheal lumen [4]: increased PPE | KC in BAL 24 hours after intratracheal instillation ([5]; C57BL/6 mice): failed to increase

Oc1cc2c(cc1O)CN(C(=S)NCCc1ccc(Cl)cc1)CCC2 [capsazepine]
effect on SP (25 nM)- and capsaicin (100 µM)-evoked Evans blue dye extravasation (PPE) [4]: prevented

substance P (RPKPQQFFGLM-NH2; ends and bridges not checked; UniProt P20366 58-68, looked up) [SP, neuropeptide tachykinin released from sensory nerve terminals]
plasma protein extravasation (PPE) after instillation into the tracheal lumen [4]: increased PPE | KC in BAL 24 hours after intratracheal instillation ([5]; C57BL/6 mice): failed to increase
